Measured values from patent US20150175608A1, “NOVEL 4-SUBSTITUTED 1,3-DIHYDRO-2H-BENZIMIDAZOL-2-ONE DERIVATIVES SUBSTITUTED WITH BENZIMIDAZOLES AS RESPIRATORY SYNCYTIAL VIRUS ANTIVIRAL AGENTS” (Janssen R&D Ireland, priority 2012, published 2015).

Assays:
rgRSV224 virus = assay: Antiviral activity: rgRSV224 replication (GFP expression) in HeLa cells; assay type: cell-based; settings: human respiratory syncytial virus, 72 h, read-out: WT activity EC50
Method: (§1) Antiviral Activity Black 96-well clear-bottom microtiter plates (Corning, Amsterdam, The Netherlands) were filled in duplicate using a customized robot system with serial 4-fold dilutions of compound in a final volume of 50 μl culture medium [RPMI medium without phenol red, 10% FBS, 0.04% gentamycin (50 mg/ml) and 0.5% DMSO]. Then, 100 μl of a HeLa cell suspension (5×10^4 cells/ml) in culture medium was added to each well followed by the addition of 50 μl rgRSV224 (MOI=0.02) virus in culture medium using a multidrop dispenser (Thermo Scientific, Erembodegem, Belgium). rgRSV224 virus is an engineered virus that includes an additional GFP gene (Hallak et al, 2000) and was in-licensed from the NIH (Bethesda, Md., USA). Medium, virus- and mock-infected controls were included in each test. Cells were incubated at 37° C. in a 5% CO2 atmosphere. Three days post-virus exposure, viral replication was quantified by measuring GFP expression in the cells by a MSM laser microscope (Tibotec, Beerse, Belgium). The EC50 was defined as the 50% inhibitory concentration for GFP expression. In parallel, compounds were incubated for three days in a set of white 96-well microtiter plates (Corning) and the cytotoxicity of compounds in HeLa cells was determined by measuring the ATP content of the cells using the ATPlite kit (PerkinElmer, Zaventem, Belgium) according to the manufacturer's instructions. The CC50 was defined as the 50% concentration for cytotoxicity.

in vitro = assay type: cell-based; settings: human
Method: as §1

SMILES	EC50 (rgRSV224 virus) [nM]	CC50 at 3 days (in vitro) [µM]	melting point [°C]
CS(=O)(=O)CCCn1c(Cn2c(=O)n(C3CC3)c3c(Cl)cncc32)nc2cc(Cl)ccc21 [Compound P1, 7-Chloro-3-((5-chloro-1-(3-(methylsulfonyl)-propyl)-1H-benzo[d]imidazol-2-yl)methyl)-1-cyclopropyl-1H-imidazo[4,5-c]pyridin-2(3H)-one]	1.7	> 100	–
CS(=O)(=O)CCCn1c(Cn2c(=O)n(CC(F)(F)F)c3c(Cl)cccc32)nc2cc(Cl)ccc21 [Compound P7, 4-chloro-1-((5-chloro-1-(3-(methylsulfonyl)propyl)-1H-benzo[d]imidazol-2-yl)methyl)-3-(2,2,2-trifluoroethyl)-1H-benzo[d]imidazol-2(3H)-one]	12	69	–
Cc1cccc2c1n(C1CC1)c(=O)n2Cc1nc2cc(Cl)ccc2n1CCCS(C)(=O)=O [Compound P3, 1-((5-Chloro-1-(3-(methylsulfonyl)propyl)-1H-benzo[d]imidazol-2-yl)-methyl)-3-cyclopropyl-4-methyl-1H-benzo[d]imidazol-2(3H)-one]	5.1	64.6	–
CS(=O)(=O)CCCn1c(Cn2c(=O)n(CC(F)(F)F)c3c(Cl)cncc32)nc2cc(Cl)ccc21 [Compound P6, 7-chloro-3-((5-chloro-1-(3-(methylsulfonyl)propyl)-1H-benzo[d]imidazol-2-yl)methyl)-1-(2,2,2-trifluoroethyl)-1H-imidazo[4,5-c]pyridin-2(3H)-one]	9	> 100	232.82
CS(=O)(=O)CCCn1c(Cn2c(=O)n(C3CC3)c3c(Cl)cccc32)nc2cc(Cl)ccc21 [Compound P2, 4-Chloro-1-((5-chloro-1-(3-(methylsulfonyl)propyl)-1H-benzo[d]imidazol-2-yl)methyl)-3-cyclopropyl-1H-benzo[d]imidazol-2(3H)-one]	7.4	> 100	–
CS(=O)(=O)CCCn1c(Cn2c(=O)n(C3CC3)c3c(C(F)(F)F)cccc32)nc2cc(Cl)ccc21 [Compound P5, 1-((5-chloro-1-(3-(methylsulfonyl)propyl)-1H-benzo[d]imidazol-2-yl)-methyl)-3-cyclopropyl-4-(trifluoromethyl)-1H-benzo[d]imidazol-2(3H)-one]	28	> 100	210.18
Cc1cncc2c1n(C1CC1)c(=O)n2Cc1nc2cc(Cl)ccc2n1CCCS(C)(=O)=O [Compound P4, 3-((5-chloro-1-(3-(methylsulfonyl)propyl)-1H-benzo[d]imidazol-2-yl)methyl)-1-cyclopropyl-7-methyl-1H-imidazo[4,5-c]pyridin-2(3H)-one]	1.4	> 100	–
